Key:
[1] = Stability of the compound at room temperature; type: physicochemical
Solubility in solvents = type: physicochemical
anaesthetized rat = experiment: Influence on circulatory system (heart rate, blood pressure, max dP/dt, min dP/dt) in anaesthetized rat, continuous intravenous administration; type: in vivo; settings: hydrochloride salt, i.v. continuous 0.1 mg/kg/minute for 20 minutes, difference vs 0 minute value; for change in the heart rate: FIG. 1; for change in blood pressure: FIG. 2; for change in left ventricular contraction function (max dP/dt): FIG. 3; for change in left ventricular relaxation function (min dP/dt): FIG. 4
Protocol: Measurement of heart rate, blood pressure, left ventricular contraction function (max dP/dt), and left ventricular relaxation function (min dP/dt)
Test method: In the present test, by using an anaesthetized rat, the influence of the hydrochloride salt of the first optical isomer component (A) and the second optical isomer component (B), each administered intravenously and continuously, on a circulatory system was determined. The test was performed with n=5 for each group. Each of the first component (A) or the second component (B) was continuously administered for 20 minutes at 0.1 mg/kg/minute, and then the measurement of heart rate, blood pressure, max dP/dt, and min dP/dt was performed. Each parameter was measured at 0 minute, 1 minute, 5 minutes, 10 minutes, 15 minutes, 20 minutes, 25 minutes, 30 minutes, 35 minutes, and 40 minutes after the administration, and the result was expressed in terms of a difference compared to the 0 minute value (previous value (i.e., control value)). The measurement value was expressed in terms of mean value±SD.
For the data of FIG. 1 to FIG. 4, determination of a significant difference was carried out by using t test.

anaesthetized beagle dog [2] = experiment: Influence on atrial effective refractory period in anaesthetized beagle dog; type: in vivo; settings: FIG. 5; for atrial effective refractory period (% change rate vs control value 100%): hydrochloride salt, i.v. 10 minutes at 0.1 mg/kg/minute then 20 minutes at 0.05 mg/kg/minute, pacing interval 250 msec
Protocol: Influence on Atrial Effective Refractory Period
Test method: In the present test, by using an anaesthetized beagle dog, the influence of hydrochloride salt of the first optical isomer component (A) and the second optical isomer component (B), each administered intravenously and continuously, on atrial effective refractory period was determined. The test was performed with n=5 for each group. The test compound was continuously administered for 10 minutes at 0.1 mg/kg/minute and then for 20 minutes at 0.05 mg/kg/minute. Measurement of atrial effective refractory period till 270 minutes after the termination of the administration was carried out. The pacing interval was 250 msec. The measurement value was expressed in terms of mean value±SD.
Test results: The test results are expressed in terms of % change rate when the previous value (i.e., control value) of atrial effective refractory period is set at 100%.
For the data of FIG. 5, determination of a significant difference was carried out by using t test.

anaesthetized beagle dog [3] = experiment: Influence on ventricular effective refractory period in anaesthetized beagle dog; type: in vivo; settings: for ventricular effective refractory period (% change rate vs control value 100%): anaesthetized beagle dog, i.v. rapid 5 minutes at 1 mg/kg/minute, measured immediately after administration, pacing interval 250 msec, FIG. 6; for extension of ventricular effective refractory period: beagle dog
Protocol: Influence on Ventricular Effective Refractory Period Test method: In the present test, by using an anaesthetized beagle dog, the influence of the first optical isomer component (A) and the second optical isomer component (B), each administered intravenously and rapidly, on ventricular effective refractory period was determined. The test was performed with n=5 for each group. The test compound was rapidly administered for 5 minutes at 1 mg/kg/minute. Measurement of ventricular effective refractory period was carried out immediately after the termination of the administration. The pacing interval was 250 msec. The measurement value was expressed in terms of mean value±SD. Test results: The test results are expressed in terms of % change rate when the previous value (i.e., control value) of ventricular effective refractory period is set at 100%.

SMILES | stability to oxygen, humidity, acid, and alkali [1] | solubility in ethanol and dimethyl sulfoxide (DMSO) (Solubility in solvents; free form, amorphous solid) | skin irritating property (Skin irritating property) | change in the heart rate (anaesthetized rat) | change in blood pressure (anaesthetized rat) | change in left ventricular contraction function (max dP/dt) (anaesthetized rat) | change in left ventricular relaxation function (min dP/dt) (anaesthetized rat) | atrial effective refractory period (% change rate vs control value 100%) (anaesthetized beagle dog [2]) | atrial effective refractory period extension compared with the other enantiomer (anaesthetized beagle dog [2]; same regimen) | ventricular effective refractory period (% change rate vs control value 100%) (anaesthetized beagle dog [3]; 1 mg/kg) | extension of ventricular effective refractory period (anaesthetized beagle dog [3]; amount of up to 8 mg/Kg) | extension of ventricular effective refractory period (anaesthetized beagle dog [3]; 1 mg/kg, dose dependent) | solubility in water, ethanol, and dimethyl sulfoxide (Solubility in solvents; oxalate, crystal)
COc1ccc2c(c1)CN(C(=O)CCN1CCC(Cc3ccccc3)CC1)CC[S+]2[O-] (racemic) [[Ia], 4-[3-(4-benzylpiperidin-1-yl)propionyl]-7-methoxy-2,3,4,5-tetrahydro-1,4-benzothiazepine-1-oxide] | stable | easily dissolved | has a skin irritating property | – | – | – | – | – | – | – | – | – | –
COc1ccc2c(c1)CN(C(=O)CCN1CCC(Cc3ccccc3)CC1)CC[S+]2[O-] (single isomer, unassigned) [first optical isomer component (A), 4-[3-(4-benzylpiperidin-1-yl)propionyl]-7-methoxy-2,3,4,5-tetrahydro-1,4-benzothiazepine-1-oxide] | – | – | – | mildly increased | mildly increased | enhanced | enhanced | extended | longer extension | not extended | does not show any extension | – | –
COc1ccc2c(c1)CN(C(=O)CCN1CCC(Cc3ccccc3)CC1)CC[S+]2[O-] (single isomer, unassigned) [second optical isomer component (B), 4-[3-(4-benzylpiperidin-1-yl)propionyl]-7-methoxy-2,3,4,5-tetrahydro-1,4-benzothiazepine-1-oxide] | – | – | – | decreased | decreased | reduced | reduced | extended | – | significantly extended | – | can extend ventricular effective refractory period | –
COc1ccc2c(c1)CN(C(=O)CCN1CCC(Cc3ccccc3)CC1)CC[S+]2[O-] (stereo not shown) [oxalate of the compound [Ia], 4-[3-(4-benzylpiperidin-1-yl)propionyl]-7-methoxy-2,3,4,5-tetrahydro-1,4-benzothiazepine-1-oxide] | – | – | – | – | – | – | – | – | – | – | – | – | soluble
